Earlier results on one compound are cited in patent US20140056862A1, “NUTRITIONAL COMPOSITIONS HAVING ALPHA-HICA AND ALPHA-KETOGLUTARATE” (Nestec S.A., priority 2011, published 2014).

The series deals with intestinal mammalian target of rapamycin (mTOR); intestinal villi and crypts. The note with it: piglet stressed with LPS.

For the compound `O=C(O)CCC(=O)C(=O)O` [AKG, α-ketoglutarate], the crypt depth result is on record as “reduced” and the villous height entry was “increased”. Also, the “phosphorylation of intestinal mammalian target of rapamycin (mTOR)” value (leading to increased protein synthesis and anti-inflammatory responses) is on record as “increased”.
